pEC50, pKi: −log10 of the molar value.
Assays:
[1] = system: TAZ nuclear translocation in SW1990 cells; assay: TAZ Nuclear Translocation Assay; type: cell-based; conditions: Homo sapiens, 4 hours
Description: The SW1990 cells (ATCC, CRL2172) were seeded at 5000 cells/well by adding 30 μL/well of cells in RPMI1640, 10% FBS, 2 mM glutamine culture media to a 384-well plate (Greiner 781091). The cells were incubated overnight at 37° C. Next day, test compounds were directly added to the cells using the Echo Liquid Handler (Labcyte), incubate at 37° C. for 4 hours. The cells were fixed with 4% paraformaldehyde and incubate for 20 minutes at room temperature. After washing three times with 100 μL PBS, 0.5% Triton X-100 was added to permeabilize the cells, incubate at room temperature for 5 minutes, following by washing the cells three times with PBS. 3% BSA was added to the cells, incubate for one hour at room temperature, following by washing three times with PBS. 50 μL of 1:750 diluted rabbit Anti-TAZ (Cell signaling D316D) in 3% BSA was added to the cells, incubate at 4° C. overnight. Next day, after washing the cells three times with PBS, 50 μL of 1:1250 diluted donkey anti-Rabbit, Alexa Fluor 488 (Invitrogen A21206) and 1:6250 diluted Hoechst 33342 (Molecular Probes H-21492) in 3% BSA was added to the cells, incubate at room temperature for one hour. The cells were washed three times with PBS, then image with the CellInsight CX7 High-Content Imager. The ratio of nuclear mean fluorescence intensity and cytoplasmic ring region mean fluorescence intensity was calculated. The % inhibition was normalized using DMSO as 0% inhibition and an inhibitor control as 100% inhibition. The EC50 values were calculated by fitting the % inhibition with a nonlinear four-parameter logistical equation.

[2] = target: Human LATS2 catalytic domain (Homo sapiens (Human), UniProt Q9NRM7); assay: LATS2 High ATP HTRF Assay; type: biochemical; conditions: no asterisk: LATS2 High ATP HTRF Assay, 5000 μM ATP, 0.05 nM LATS2
Description: Human LATS2 catalytic domain which contains the amino acids G553-V1088 (accession NP_055387) was purified in-house. The LATS2 catalytic domain was co-purified with Mob1b (accession NP_775739). The LATS2 biochemical HTRF assay was performed using the HTRF KinEASE-STK S1 Kit (Cisbio, Cat #62ST1PEC), following the protocol from the manufacturer. Compounds were dispensed by the Echo Liquid Handler (Labcyte) into a white 384-well plate (PerkinElmer, Cat #6008289). 3 uL of 2×LATS2 enzyme solution was added to the compounds, following by a 10 minute incubation at room temperature. Then, 2×ATP and STK S1 peptide solution was added to initiate the one hour enzyme reaction at room temperature. The final condition of the reaction was 0.2 nM LATS2, 50 μM ATP, 0.5 μM STK S1 peptide in 50 mM HEPES pH7.2, 10 mM MgCl2, 0.1% BGG, 0.005% Brij-35, 1 mM DTT. The reaction was quenched by adding 6 uL of the detection mixture which contained Streptavidin XL665 and STK Antibody-Cryptate (Cisbio), incubate for 1 hour at room temperature. The HTRF (665 nm/620 nm) signal was read on the Envision plater reader (PerkinElmer). The IC50 values were determined by fitting the % inhibition with a nonlinear four-parameter logistical equation. The Ki values were calculated using the Cheng-Prusoff equation for a competitive inhibitor, IC50═Ki (1+S/Km)+M [E] with ATP Km for LATS2=105 μM.
The LATS2 high ATP HTRF assay was performed using the same protocol as the Standard LATS2 HTRF assay. The final condition of the reaction was 0.05 nM LATS2, 5000 μM ATP, 0.5 μM STK S1 peptide in 50 mM HEPES pH7.2, 10 mM MgCl2, 0.1% BGG, 0.005% Brij-35, 1 mM DTT and the 2 hours enzyme reaction at room temperature.

Human LATS2 catalytic domain, sequence (Q9NRM7 553-1088): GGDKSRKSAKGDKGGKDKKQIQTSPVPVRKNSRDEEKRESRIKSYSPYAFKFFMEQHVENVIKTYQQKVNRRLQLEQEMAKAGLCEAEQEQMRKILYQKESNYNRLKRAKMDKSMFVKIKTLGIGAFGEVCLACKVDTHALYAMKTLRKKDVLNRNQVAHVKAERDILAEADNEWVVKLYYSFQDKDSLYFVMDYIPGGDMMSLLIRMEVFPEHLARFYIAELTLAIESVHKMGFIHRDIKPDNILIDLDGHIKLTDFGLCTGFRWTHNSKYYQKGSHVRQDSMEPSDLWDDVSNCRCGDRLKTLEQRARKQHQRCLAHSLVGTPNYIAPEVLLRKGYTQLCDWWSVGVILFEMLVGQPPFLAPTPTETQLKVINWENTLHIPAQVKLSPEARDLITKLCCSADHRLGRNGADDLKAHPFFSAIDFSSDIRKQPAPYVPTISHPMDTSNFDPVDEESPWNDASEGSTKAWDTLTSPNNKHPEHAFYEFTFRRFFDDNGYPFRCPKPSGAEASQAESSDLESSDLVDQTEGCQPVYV
Human LATS2 catalytic domain, sequence (Q7L9L4 whole entry partner, the tested form may be a part): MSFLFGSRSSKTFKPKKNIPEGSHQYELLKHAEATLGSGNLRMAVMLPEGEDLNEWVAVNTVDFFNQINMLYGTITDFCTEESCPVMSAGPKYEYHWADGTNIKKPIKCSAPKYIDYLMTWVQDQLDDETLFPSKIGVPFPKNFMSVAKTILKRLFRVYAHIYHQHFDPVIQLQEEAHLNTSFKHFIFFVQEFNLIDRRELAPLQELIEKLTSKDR

SMILES | pEC50 [1] | pKi [2]
Cc1n[nH]cc1-c1nc(N2CCC3(CC2)CCN([C@@H]2CCC[C@H]2O)C3)c2ccncc2n1 (single isomer, unassigned) [Compound 184] | 5.85 | 10.43
COC[C@H]1CC2(CCN(c3nc(-c4ccncc4)nc4cnccc34)CC2)CN1 (single isomer, unassigned) [Example 221] | 6.64 | 9.49
Cc1[nH]ncc1-c1nc(N2CCC3(CC2)CCN([C@@H]2CC[C@H]2O)C3)c2ccncc2n1 (single isomer, unassigned) [Example 228] | 5.57 | 10.17
Cc1[nH]ncc1-c1nc(N2CCC3(CC2)CCN([C@H]2CC[C@@H]2O)C3)c2ccncc2n1 (single isomer, unassigned) [Example 229] | 5.68 | 10.20
CC(C)N1CCC2(CCN(c3nc(-c4ccncc4)nc4cnccc34)CC2)C1 [Compound 117, 4-(2-isopropyl-2,8-diazaspiro[4.5]decan-8-yl)-2-(pyridin-4-yl)pyrido[3,4-d]pyrimidine] | 5.80 | 9.39
c1cc(-c2nc(N3CCC4(CC3)CCN(C3CCCCC3)C4)c3ccncc3n2)ccn1 [Compound 119, 4-(2-cyclohexyl-2,8-diazaspiro[4.5]decan-8-yl)-2-(pyridin-4-yl)pyrido[3,4-d]pyrimidine] | 6.37 | 10.52
NC(=O)CN1CCC2(CCN(c3nc(-c4ccncc4)nc4cnccc34)CC2)C1 [Compound 130, 2-(8-(2-(pyridin-4-yl)pyrido[3,4-d]pyrimidin-4-yl)-2,8-diazaspiro[4.5]decan-2-yl)acetamide] | 5.92 | 9.35
FCCN1CCC2(CCN(c3nc(-c4ccncc4)nc4cnccc34)CC2)C1 [Compound 134, 4-(2-(2-fluoroethyl)-2,8-diazaspiro[4.5]decan-8-yl)-2-(pyridin-4-yl)pyrido[3,4-d]pyrimidine] | 5.96 | 9.14
c1cc(-c2nc(N3CCC4(CCN(c5cn[nH]c5)C4)CC3)c3ccncc3n2)ccn1 [Compound 141, 4-(2-(1H-pyrazol-4-yl)-2,8-diazaspiro[4.5]decan-8-yl)-2-(pyridin-4-yl)pyrido[3,4-d]pyrimidine] | < 5.00 | 8.48
Cc1n[nH]cc1-c1nc(N2CCC3(CC2)CCN(C2CCOC2)C3)c2ccncc2n1 (centres unmarked) [Compound 148, 2-(3-methyl-1H-pyrazol-4-yl)-4-(2-(tetrahydrofuran-3-yl)-2,8-diazaspiro[4.5]decan-8-yl)pyrido[3,4-d]pyrimidine] | 6.25 | 9.92
Cc1n[nH]cc1-c1nc(N2CCC3(CCN(CCCO)C3)CC2)c2ccncc2n1 [Compound 149, 3-(8-(2-(3-methyl-1H-pyrazol-4-yl)pyrido[3,4-d]pyrimidin-4-yl)-2,8-diazaspiro[4.5]decan-2-yl)propan-1-ol] | 5.60 | 10.35
Clc1[nH]ncc1-c1nc(N2CCC3(CCNC3)CC2)c2ccncc2n1 [Compound 153, 2-(5-chloro-1H-pyrazol-4-yl)-4-(2,8-diazaspiro[4.5]decan-8-yl)pyrido[3,4-d]pyrimidine] | < 5.00 | 9.96
c1cc2c(N3CCC4(CCNC4)CC3)nc(-c3ccnc4[nH]ccc34)nc2cn1 [Compound 156, 2-(1H-pyrrolo[2,3-b]pyridin-4-yl)-4-(2,8-diazaspiro[4.5]decan-8-yl)pyrido[3,4-d]pyrimidine] | 5.34 | 9.15

The next lines start with the values.

pEC50 [1] | pKi [2] | SMILES
6.07 | 10.33 | Cc1[nH]ncc1-c1nc(N2CCC3(CC2)CCN([C@H]2CCC[C@@H]2O)C3)c2ccncc2n1 (single isomer, unassigned) [Compound 185]
6.47 | 10.00 | COC[C@@H]1CC2(CCN(c3nc(-c4ccncc4)nc4cnccc34)CC2)CN1 (single isomer, unassigned) [Example 222]
6.00 | 10.37 | Cc1[nH]ncc1-c1nc(N2CCC3(CC2)CCN([C@@H]2CC[C@@H]2O)C3)c2ccncc2n1 (single isomer, unassigned) [Example 230]
6.05 | 9.96 | Cc1[nH]ncc1-c1nc(N2CCC3(CC2)CCN([C@H]2CC[C@H]2O)C3)c2ccncc2n1 (single isomer, unassigned) [Example 231]
5.42 | 10.37 | NS(=O)(=O)CCN1CCC2(CCN(c3nc(-c4ccncc4)nc4cnccc34)CC2)C1 [Compound 109, 2-(8-(2-(pyridin-4-yl)pyrido[3,4-d]pyrimidin-4-yl)-2,8-diazaspiro[4.5]decan-2-yl)ethanesulfonamide]
5.68 | 8.96 | CC(=O)NCCN1CCC2(CCN(c3nc(-c4ccncc4)nc4cnccc34)CC2)C1 [Compound 123, N-(2-(8-(2-(pyridin-4-yl)pyrido[3,4-d]pyrimidin-4-yl)-2,8-diazaspiro[4.5]decan-2-yl)ethyl)acetamide]
6.02 | 9.96 | CS(=O)(=O)NCCN1CCC2(CCN(c3nc(-c4ccncc4)nc4cnccc34)CC2)C1 [Compound 126, N-(2-(8-(2-(pyridin-4-yl)pyrido[3,4-d]pyrimidin-4-yl)-2,8-diazaspiro[4.5]decan-2-yl)ethyl)methanesulfonamide]
5.62 | 9.60 | NC(=O)CCN1CCC2(CCN(c3nc(-c4ccncc4)nc4cnccc34)CC2)C1 [Compound 132, 3-(8-(2-(pyridin-4-yl)pyrido[3,4-d]pyrimidin-4-yl)-2,8-diazaspiro[4.5]decan-2-yl)propanamide]
6.38 | 10.20 | FCCCN1CCC2(CCN(c3nc(-c4ccncc4)nc4cnccc34)CC2)C1 [Compound 135, 4-(2-(3-fluoropropyl)-2,8-diazaspiro[4.5]decan-8-yl)-2-(pyridin-4-yl)pyrido[3,4-d]pyrimidine]
5.49 | 9.35 | N#CCCN1CCC2(CCN(c3nc(-c4ccncc4)nc4cnccc34)CC2)C1 [Compound 136, 3-(8-(2-(pyridin-4-yl)pyrido[3,4-d]pyrimidin-4-yl)-2,8-diazaspiro[4.5]decan-2-yl)propanenitrile]
< 5.00 | 10.43 | Cc1n[nH]cc1-c1nc(N2CCC3(CCNC3)CC2)c2ccncc2n1 [Compound 142, 2-(3-methyl-1H-pyrazol-4-yl)-4-(2,8-diazaspiro[4.5]decan-8-yl)pyrido[3,4-d]pyrimidine]
5.57 | 10.06 | Cc1n[nH]cc1-c1nc(N2CCC3(CCN(CCO)C3)CC2)c2ccncc2n1 [Compound 146, 2-(8-(2-(3-methyl-1H-pyrazol-4-yl)pyrido[3,4-d]pyrimidin-4-yl)-2,8-diazaspiro[4.5]decan-2-yl)ethan-1-ol]
6.55 | 10.23 | Cc1n[nH]cc1-c1nc(N2CCC3(CCN(CC(C)(C)O)C3)CC2)c2ccncc2n1 [Compound 150, 2-methyl-1-(8-(2-(3-methyl-1H-pyrazol-4-yl)pyrido[3,4-d]pyrimidin-4-yl)-2,8-diazaspiro[4.5]decan-2-yl)propan-2-o0]
6.08 | 10.28 | Cc1n[nH]cc1-c1nc(N2CCC3(CCN(CC4COC4)C3)CC2)c2ccncc2n1 [Compound 152, 2-(3-methyl-1H-pyrazol-4-yl)-4-(2-(oxetan-3-ylmethyl)-2,8-diazaspiro[4.5]decan-8-yl)pyrido[3,4-d]pyrimidine]
< 5.00 | 8.69 | Cc1cc2c(N3CCC4(CCNC4)CC3)nc(-c3c[nH]nc3C)nc2cn1 [Compound 160, 6-methyl-2-(3-methyl-1H-pyrazol-4-yl)-4-(2,8-diazaspiro[4.5]decan-8-yl)pyrido[3,4-d]pyrimidine]

Reference: US20240174696A1, “2,8-DIAZASPIRO[4.5]DECANE COMPOUNDS” (Genentech, Inc., priority 2021, published 2024)
